Assay results taken from ChEMBL document CHEMBL2331215, “Discovery of novel N-substituted oxindoles as selective m1 and m4 muscarinic acetylcholine receptors partial agonists” (ACS Med Chem Lett, 2013).
Values belong to the compound of their own block, whether it stands above or below them. Activity calls are given as the source filed them. The calls are words filed in the database; no cut-off is given here.

Assays:
[1] = target: T1, Muscarinic acetylcholine receptor M2 (Homo sapiens) (UniProt P08172); assay: Agonist activity at M2 receptor (unknown origin) at 3 uM by calcium mobilization assay; assay type: functional
T1 sequence (whole entry): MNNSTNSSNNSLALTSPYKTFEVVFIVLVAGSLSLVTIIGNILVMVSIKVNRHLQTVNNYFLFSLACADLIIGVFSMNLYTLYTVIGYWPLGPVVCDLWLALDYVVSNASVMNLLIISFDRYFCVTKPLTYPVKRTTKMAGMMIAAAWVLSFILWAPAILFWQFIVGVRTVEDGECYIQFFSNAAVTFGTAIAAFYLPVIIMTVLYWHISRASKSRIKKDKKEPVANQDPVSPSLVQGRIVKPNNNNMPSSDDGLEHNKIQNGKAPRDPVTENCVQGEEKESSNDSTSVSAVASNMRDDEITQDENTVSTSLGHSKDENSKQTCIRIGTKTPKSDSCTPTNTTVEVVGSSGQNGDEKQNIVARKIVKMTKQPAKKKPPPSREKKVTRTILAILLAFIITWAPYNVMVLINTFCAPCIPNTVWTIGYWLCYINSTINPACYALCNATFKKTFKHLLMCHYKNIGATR

[2] = target: T2, Muscarinic acetylcholine receptor M5 (Homo sapiens) (UniProt P08912); assay: Agonist activity at M5 receptor (unknown origin) at 3 uM by calcium mobilization assay; assay type: functional
T2 sequence (whole entry): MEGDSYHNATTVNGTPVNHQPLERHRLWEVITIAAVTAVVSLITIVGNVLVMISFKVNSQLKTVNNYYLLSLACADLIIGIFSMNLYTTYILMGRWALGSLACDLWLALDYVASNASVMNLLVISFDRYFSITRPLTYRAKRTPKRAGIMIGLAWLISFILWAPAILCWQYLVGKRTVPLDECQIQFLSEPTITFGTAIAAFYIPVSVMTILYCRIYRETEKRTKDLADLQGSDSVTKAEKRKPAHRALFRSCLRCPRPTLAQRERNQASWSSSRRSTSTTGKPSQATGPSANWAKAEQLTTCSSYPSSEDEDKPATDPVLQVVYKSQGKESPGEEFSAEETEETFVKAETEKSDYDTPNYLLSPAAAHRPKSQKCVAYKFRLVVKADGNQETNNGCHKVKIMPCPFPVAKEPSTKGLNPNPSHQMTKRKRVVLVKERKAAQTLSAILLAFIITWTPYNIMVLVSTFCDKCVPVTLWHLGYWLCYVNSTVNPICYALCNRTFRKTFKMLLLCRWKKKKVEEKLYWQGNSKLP

[3] = target: T3, Muscarinic acetylcholine receptor M1 (Homo sapiens) (UniProt P11229); assay: Agonist activity at M1 receptor (unknown origin) at 3 uM by calcium mobilization assay; assay type: functional
T3 sequence (whole entry): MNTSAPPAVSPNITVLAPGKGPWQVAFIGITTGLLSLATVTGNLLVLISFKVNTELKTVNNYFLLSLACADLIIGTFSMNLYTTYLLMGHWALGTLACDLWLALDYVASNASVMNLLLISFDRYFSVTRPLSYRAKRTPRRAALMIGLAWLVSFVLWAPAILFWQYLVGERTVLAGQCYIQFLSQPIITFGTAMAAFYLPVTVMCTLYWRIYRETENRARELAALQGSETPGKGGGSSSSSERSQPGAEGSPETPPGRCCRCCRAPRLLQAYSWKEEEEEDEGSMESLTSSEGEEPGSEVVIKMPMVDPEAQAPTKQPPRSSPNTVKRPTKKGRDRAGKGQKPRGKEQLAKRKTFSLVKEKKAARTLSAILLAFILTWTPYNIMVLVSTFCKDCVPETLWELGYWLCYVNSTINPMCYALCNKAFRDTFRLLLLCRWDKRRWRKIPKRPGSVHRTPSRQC

[4] = target: T4, Muscarinic acetylcholine receptor M4 (Homo sapiens) (UniProt P08173); assay: Agonist activity at M4 receptor (unknown origin) at 3 uM by calcium mobilization assay; assay type: functional
T4 sequence (whole entry): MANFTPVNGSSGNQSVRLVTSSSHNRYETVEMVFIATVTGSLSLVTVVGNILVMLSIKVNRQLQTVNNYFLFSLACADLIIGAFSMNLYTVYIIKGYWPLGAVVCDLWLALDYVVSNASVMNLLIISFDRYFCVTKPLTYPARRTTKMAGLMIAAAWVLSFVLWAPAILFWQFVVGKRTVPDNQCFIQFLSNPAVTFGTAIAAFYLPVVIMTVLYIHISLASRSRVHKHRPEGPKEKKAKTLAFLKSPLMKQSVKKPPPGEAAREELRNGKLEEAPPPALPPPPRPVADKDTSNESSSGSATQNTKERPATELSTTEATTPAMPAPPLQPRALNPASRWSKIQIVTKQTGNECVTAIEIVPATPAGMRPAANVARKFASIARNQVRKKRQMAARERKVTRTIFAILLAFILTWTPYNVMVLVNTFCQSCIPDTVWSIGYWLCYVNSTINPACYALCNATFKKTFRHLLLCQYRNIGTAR

[5] = target: Muscarinic acetylcholine receptor M3 (Homo sapiens) (UniProt P20309); assay: Agonist activity at M3 receptor (unknown origin) at 3 uM by calcium mobilization assay; assay type: functional
[6] = organism: Rattus norvegicus; details: Sprague-Dawley, 0.1 to 1 mg/kg
[7] = target: T4, Muscarinic acetylcholine receptor M4 (Homo sapiens); assay: (§1) Partial agonist activity at human M4 receptor co-expressed with Galpha16 in CHO cells assessed as calcium mobilization after 60 mins by FLIPR assay; assay type: functional, cell-based
[8] = target: T5, Muscarinic acetylcholine receptor M4 (Homo sapiens, UniProt P08173); assay: as §1; assay type: functional, cell-based
T5 sequence (P08173 whole entry): T4 sequence (whole entry)

[9] = target: T4, Muscarinic acetylcholine receptor M4 (Homo sapiens); assay: Agonist activity at M4 receptor (unknown origin) at 10 uM by calcium mobilization assay; assay type: functional
[10] = target: T2, Muscarinic acetylcholine receptor M5 (Homo sapiens); assay: Partial agonist activity at human M5 receptor in CHO cells assessed as calcium mobilization at 3 uM after 60 mins by FLIPR assay; assay type: functional, cell-based
[11] = target: Muscarinic acetylcholine receptor M3 (Homo sapiens) (UniProt P20309); assay: Partial agonist activity at human M3 receptor in CHO cells assessed as calcium mobilization at 3 uM after 60 mins by FLIPR assay; assay type: functional, cell-based
[12] = target: T4, Muscarinic acetylcholine receptor M4 (Homo sapiens); assay: Partial agonist activity at human M4 receptor co-expressed with Galpha16 in CHO cells assessed as calcium mobilization at 30 nM after 60 mins by FLIPR assay; assay type: functional, cell-based
[13] = target: T1, Muscarinic acetylcholine receptor M2 (Homo sapiens); assay: Partial agonist activity at human M2 receptor co-expressed with Galpha16 in CHO cells assessed as calcium mobilization at 3 uM after 60 mins by FLIPR assay; assay type: functional, cell-based
[14] = target: T3, Muscarinic acetylcholine receptor M1 (Homo sapiens); assay: Partial agonist activity at human M1 receptor in CHO cells assessed as calcium mobilization at 3 uM after 60 mins by FLIPR assay; assay type: functional, cell-based
[15] = system: Mus musculus; assay: Induction of seizures in ddY mouse at 300 mg/kg, sc measured for 45 mins after drug injection; assay type: organism-based; design: dose 300 mg/kg, route subcutaneous; details: in vivo, 0.75 h
[16] = system: Mus musculus; assay: Induction of salivation in ddY mouse at 10 to 30 mg/kg, sc measured for 30 mins after drug administration; assay type: organism-based; design: dose 10-30 mg/kg, route subcutaneous; details: in vivo, 0.5 h
[17] = system: Cynomolgus monkey; assay: Induction of miosis in sc dosed cynomolgus monkey; assay type: organism-based, Macaca fascicularis; details: in vivo
[18] = system: Cynomolgus monkey; assay: Cardiotoxicity in telemetered cynomolgus monkey assessed as increase in mean blood pressure at 1 to 3 mg/kg, sc measured after 1 to 4 hrs by telemetry method; assay type: toxicity, organism-based, Macaca fascicularis; design: route subcutaneous; details: in vivo
[19] = system: Cynomolgus monkey; assay: Induction of vomiting in sc dosed cynomolgus monkey; assay type: organism-based, Macaca fascicularis; details: in vivo
[20] = system: Cynomolgus monkey; assay: Cardiotoxicity in telemetered cynomolgus monkey assessed as prolongation of QTc interval at 1 to 3 mg/kg, sc measured after 1 to 4 hrs by telemetry method; assay type: toxicity, organism-based, Macaca fascicularis; design: route subcutaneous; details: in vivo
[21] = system: Cynomolgus monkey; assay: Induction of salivation in sc dosed cynomolgus monkey; assay type: organism-based, Macaca fascicularis; details: in vivo
[22] = system: Cynomolgus monkey; assay: Cardiotoxicity in telemetered cynomolgus monkey assessed as prolongation of QRS duration at 1 to 3 mg/kg, sc measured after 1 to 4 hrs by telemetry method; assay type: toxicity, organism-based, Macaca fascicularis; design: route subcutaneous; details: in vivo
[23] = system: Rattus norvegicus; assay: Potentiation of haloperidol-induced catalepsy in Sprague-Dawley rats at 30 mg/kg, sc administered 15 mins after haloperidol injection measured after 45 mins; assay type: ADME, organism-based; design: dose 30 mg/kg, route subcutaneous; details: in vivo, 0.75 h
[24] = system: Cynomolgus monkey; assay: Induction of drowsiness in sc dosed cynomolgus monkey; assay type: organism-based, Macaca fascicularis; details: in vivo
[25] = system: Cynomolgus monkey; assay: Cardiotoxicity in telemetered cynomolgus monkey assessed as increase in heart rate at 1 to 3 mg/kg, sc measured after 1 to 4 hrs by telemetry method; assay type: toxicity, organism-based, Macaca fascicularis; design: route subcutaneous; details: in vivo
[26] = target: T4, Muscarinic acetylcholine receptor M4 (Homo sapiens); assay: Partial agonist activity at human M4 receptor co-expressed with Galpha16 in CHO cells assessed as calcium mobilization at 3 uM after 60 mins by FLIPR assay; assay type: functional, cell-based
[27] = target: Voltage-gated inwardly rectifying potassium channel KCNH2 (Homo sapiens, UniProt Q12809); assay: Inhibition of human ERG assessed as decrease in tail current amplitude measured after 5 mins by whole cell patch clamp technique
Voltage-gated inwardly rectifying potassium channel KCNH2, sequence (Q12809 whole entry): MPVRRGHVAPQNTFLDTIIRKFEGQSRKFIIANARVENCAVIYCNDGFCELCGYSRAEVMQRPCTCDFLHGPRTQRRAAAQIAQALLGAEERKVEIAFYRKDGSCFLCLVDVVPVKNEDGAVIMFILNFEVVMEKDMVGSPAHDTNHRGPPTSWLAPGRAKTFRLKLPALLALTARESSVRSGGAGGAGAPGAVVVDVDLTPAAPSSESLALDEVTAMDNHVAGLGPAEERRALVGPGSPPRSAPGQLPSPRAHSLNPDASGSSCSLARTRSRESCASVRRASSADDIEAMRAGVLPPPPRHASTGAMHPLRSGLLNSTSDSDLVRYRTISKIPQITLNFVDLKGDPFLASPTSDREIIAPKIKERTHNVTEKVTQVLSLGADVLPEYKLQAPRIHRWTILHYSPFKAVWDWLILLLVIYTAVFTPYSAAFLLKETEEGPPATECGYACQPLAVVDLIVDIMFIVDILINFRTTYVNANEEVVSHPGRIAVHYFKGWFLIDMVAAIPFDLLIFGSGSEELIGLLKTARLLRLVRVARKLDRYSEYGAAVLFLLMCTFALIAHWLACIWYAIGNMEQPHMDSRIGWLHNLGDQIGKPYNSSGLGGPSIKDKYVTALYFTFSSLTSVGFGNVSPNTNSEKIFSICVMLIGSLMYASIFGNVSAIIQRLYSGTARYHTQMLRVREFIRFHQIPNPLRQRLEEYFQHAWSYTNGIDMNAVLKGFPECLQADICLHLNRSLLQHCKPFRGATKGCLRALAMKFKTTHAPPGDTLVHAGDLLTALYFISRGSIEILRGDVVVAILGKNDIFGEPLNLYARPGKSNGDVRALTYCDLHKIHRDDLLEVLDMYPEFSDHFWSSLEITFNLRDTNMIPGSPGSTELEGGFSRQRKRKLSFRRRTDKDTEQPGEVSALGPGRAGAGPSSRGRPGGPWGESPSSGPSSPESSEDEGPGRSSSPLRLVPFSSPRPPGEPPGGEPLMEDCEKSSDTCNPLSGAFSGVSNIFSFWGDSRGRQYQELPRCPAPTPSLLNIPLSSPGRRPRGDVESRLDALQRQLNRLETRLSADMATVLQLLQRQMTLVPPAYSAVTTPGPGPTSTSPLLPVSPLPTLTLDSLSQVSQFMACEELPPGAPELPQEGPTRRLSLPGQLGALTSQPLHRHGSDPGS

Muscarinic acetylcholine receptor M3 (Homo sapiens), sequence (P20309 whole entry, looked up): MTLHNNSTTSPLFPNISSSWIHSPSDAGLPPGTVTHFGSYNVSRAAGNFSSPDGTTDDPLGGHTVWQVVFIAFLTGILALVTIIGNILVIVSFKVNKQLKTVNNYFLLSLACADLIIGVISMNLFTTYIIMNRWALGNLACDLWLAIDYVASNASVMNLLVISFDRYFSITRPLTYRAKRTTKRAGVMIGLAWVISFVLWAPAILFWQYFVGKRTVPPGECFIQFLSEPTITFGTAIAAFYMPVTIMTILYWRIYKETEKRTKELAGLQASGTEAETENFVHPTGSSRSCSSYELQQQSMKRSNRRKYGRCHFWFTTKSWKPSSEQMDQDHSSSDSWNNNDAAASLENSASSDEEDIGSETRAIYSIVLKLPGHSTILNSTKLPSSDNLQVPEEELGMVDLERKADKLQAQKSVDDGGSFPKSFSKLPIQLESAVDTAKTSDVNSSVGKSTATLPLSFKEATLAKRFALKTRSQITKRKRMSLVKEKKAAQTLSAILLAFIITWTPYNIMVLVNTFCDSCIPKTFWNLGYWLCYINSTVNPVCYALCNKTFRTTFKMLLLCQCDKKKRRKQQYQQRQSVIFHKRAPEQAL

SMILES: CCOC(=O)N1CCC(CN2CC[C@@H](N3C(=O)Cc4ccccc43)C2)CC1
Activity [1]: 27% | Activity [2]: 4% | Activity [3]: 88% | Activity [4]: 86% | Activity [5]: 8%

SMILES: CO/N=C(\C#N)[C@H]1CN2CCC1CC2 [SABCOMELINE]
inhibition [6]: Active | Intrinsic activity [7]: 28% | EC50 [8]: 5.7 nM

Activity [4]: 14% | Activity [9]: 33%
SMILES: CC(C)=CCN1CCC(N2C(=O)C(C)(C)c3ccccc32)CC1

SMILES: CCOC(=O)N1CCC(CN2CCC(N3C(=O)Cc4ccccc43)CC2)CC1
Activity [1]: 6% | Activity [2]: 6% | Activity [3]: 88% | Activity [4]: 33% | Activity [5]: 2%

Activity [1]: 4% | Activity [2]: 3% | Activity [3]: 7% | Activity [4]: 4% | Activity [5]: 2%
SMILES: CCOC(=O)N1CCC(CN2CCCC(N3C(=O)Cc4ccccc43)CC2)CC1 (stereo unspecified)

SMILES: CCOC(=O)N1CCC(CN2CC[C@H](N3C(=O)Cc4ccccc43)C2)CC1
Activity [10]: 5% | Activity [1]: 30% | Activity [2]: 5% | Activity [3]: 83% | Activity [11]: 7% | Intrinsic activity [12]: 79% | Activity [13]: 30% | Activity [4]: 124% | Activity [14]: 83% | Activity [5]: 7%

SMILES: CC[C@@H]1C(=O)OC[C@@H]1Cc1cncn1C [PILOCARPINE]
Activity [15]: Toxic

Activity [1]: 34% | Activity [2]: 33% | Activity [3]: 145% | Activity [4]: 83% | Activity [5]: 85%
SMILES: CCCCCCOc1nsnc1C1=CCCN(C)C1.O=C(O)C(O)C(O)C(=O)O [XANOMELINE TARTRATE]
Activity [16]: Toxic | Activity [17]: Toxic | Activity [18]: Toxic | Activity [19]: Toxic | Activity [20]: Toxic | Activity [21]: Toxic | Activity [22]: Toxic | Activity [23]: Toxic | Activity [24]: Toxic | Activity [25]: Toxic

SMILES: CCOC(=O)N1CCC(CN2CC[C@H](N3C(=O)Cc4ccccc43)C2)(OC)CC1
Intrinsic activity [26]: 13%

SMILES: CCOC(=O)N1CCC(CN2CC(N3C(=O)Cc4ccccc43)C2)CC1
Activity [1]: 2% | Activity [2]: 3% | Activity [3]: 65% | Activity [4]: 46% | Activity [5]: 3%

SMILES: CCOC(=O)N1CCC(C)(CN2CC[C@H](N3C(=O)Cc4ccccc43)C2)CC1
Activity [10]: 4% | Intrinsic activity [7]: 65% | EC50 [8]: 15 nM | Activity [11]: 2% | IC50 [27]: 3500 nM | Activity [13]: 3% | Activity [14]: 49%

SMILES: CCOC(=O)N1CCC(O)(CN2CC[C@H](N3C(=O)Cc4ccccc43)C2)CC1
Activity [10]: 3% | Intrinsic activity [7]: 45% | EC50 [8]: 320 nM | Activity [11]: 31% | IC50 [27]: 3900 nM | Activity [13]: 12% | Activity [14]: 57%
